Test results published in patent publication US20120010260A1, “METHOD FOR TREATING NERVOUS SYSTEM DISORDERS AND CONDITIONS” (priority 2004, published 2012).
Values joined by “and” are separate entries in the source; they are usually repeats but may differ in a detail not shown here. Equal values may be shown once.

Experiments:
[1] = tested on: Male Sprague-Dawley rats with L5/L6 spinal nerve ligation; assay: Spinal nerve ligation (SNL) model of neuropathic pain, tactile hypersensitivity (von Frey); assay type: in vivo; settings: rat, 30 mg/kg IP, FIG. 7
Text: Subjects. Male Sprague-Dawley rats (Indianapolis, Ind.) weighing 150 to 200 g at time of arrival, were individually housed in wire cages in a climate-controlled room. A 12-hour light/dark cycle (lights on at 0630) was in effect, and food and water were available ad libitum.
Surgery—Spinal Nerve Ligation. Rats were anesthetized with 3.5% halothane in O2 at 1 L/min and maintained with 1.5% halothane in O2 during surgery. Ligation of the L5 and L6 nerves was produced by an incision through the left paraspinal muscles. The left L5 and L6 spinal nerves were isolated adjacent to the vertebral column and ligated tightly with 6-0 silk suture just distal to the dorsal root ganglion. […]
Assessment of tactile hypersensitivity. […] Baseline tactile sensitivity was assessed using a series of calibrated von Frey monofilaments (Stoelting; Wood Dale, Ill.) 0 to 3 days before surgery. […] The ability of a single dose of test compound to reverse established hypersensitivity was assessed using a time course procedure. […]
Results are presented as the 50% threshold values (50% threshold in g force) estimated by the Dixon non-parametric test. […] Significant main effects were analyzed further by subsequent least significant difference analysis. […]
Reversal of tactile hypersensitivity was defined as a return to baseline of the tactile sensitivity and was calculated according to the following equation: […]

[2] = tested on: ovariectomized (OVX) rats, tail skin temperature (TST); assay: Telemetry rat model of ovariectomy-induced thermoregulatory dysfunction (tail skin temperature); assay type: in vivo; settings: 30 mg/kg, sc; p<0.05 compared to vehicle control
Text: This model has been modified from a previously reported protocol describing estrogen regulation of diurnal tail skin temperature (TST) patterns (Berendsen, et al., European Journal of Pharmacology, 2001, 419(1): 47-54). […] A temperature and physical activity transmitter (PhysioTel TA10TA-F40, Data Sciences International) was implanted subcutaneously in the dorsal scapular region and the tip of the temperature probe was tunneled subcutaneously 2.5 cm beyond the base of the tail. After a 7-day recovery period, TST readings were continuously recorded for the remainder of the study. Tail skin temperature readings were collected from each animal every 5 minutes with values obtained over a 10 second sampling period. The day before test day, an average baseline TST value was calculated for each animal by averaging temperature readings recorded during the 12 hour active (dark) phase. […]
Statistical analysis: Evaluation of a compound's ability to restore normal lowering of TST in the telemetry model was analyzed using hourly TST values calculated for each animal by averaging the 12 temperature readings obtained every 5 minutes over that recording time. […]
The effect of test compound is measured by evaluating the following parameters in this model: onset of action, duration of effect on TST, maximal change in TST and mean change in TST over the duration of the compound effect.

[3] = target: T1, human dopamine transporter (hDAT) (Homo sapiens, UniProt Q01959); assay: Dopamine transporter (hDAT) membrane binding assay, 3H-WIN 35,428
T1 construct: purchased Perkin Elmer RBHDATM
T1 sequence (Q01959 whole entry): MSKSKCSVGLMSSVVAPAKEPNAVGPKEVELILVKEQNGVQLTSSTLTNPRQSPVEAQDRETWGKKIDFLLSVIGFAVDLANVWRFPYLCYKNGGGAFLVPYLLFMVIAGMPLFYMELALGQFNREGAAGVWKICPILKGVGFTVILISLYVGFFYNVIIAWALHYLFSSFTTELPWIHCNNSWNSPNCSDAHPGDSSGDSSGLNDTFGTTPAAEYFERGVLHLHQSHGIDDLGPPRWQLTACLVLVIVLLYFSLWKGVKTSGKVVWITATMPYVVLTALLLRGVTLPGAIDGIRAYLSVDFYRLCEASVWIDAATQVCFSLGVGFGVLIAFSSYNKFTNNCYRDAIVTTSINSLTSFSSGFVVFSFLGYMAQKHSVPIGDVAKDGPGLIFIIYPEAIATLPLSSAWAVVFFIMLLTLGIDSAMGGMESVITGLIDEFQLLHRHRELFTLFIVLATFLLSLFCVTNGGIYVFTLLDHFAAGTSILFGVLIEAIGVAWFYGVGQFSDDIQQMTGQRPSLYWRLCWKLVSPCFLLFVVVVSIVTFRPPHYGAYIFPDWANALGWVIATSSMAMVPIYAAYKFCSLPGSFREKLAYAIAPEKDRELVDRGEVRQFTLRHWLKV

[4] = target: T2, human serotonin transporter (hSERT) (Homo sapiens, UniProt P31645); assay: Serotonin (5-HT) uptake assay (hSERT function uptake) in JAR cells; assay type: cell-based; settings: [3H]5-HT uptake
T2 construct: cells were stimulated with staurosporine (40 nM) to increase the expression of the 5-HT transporter; host or cells: JAR (human placental choriocarcinoma)
T2 sequence (P31645 whole entry): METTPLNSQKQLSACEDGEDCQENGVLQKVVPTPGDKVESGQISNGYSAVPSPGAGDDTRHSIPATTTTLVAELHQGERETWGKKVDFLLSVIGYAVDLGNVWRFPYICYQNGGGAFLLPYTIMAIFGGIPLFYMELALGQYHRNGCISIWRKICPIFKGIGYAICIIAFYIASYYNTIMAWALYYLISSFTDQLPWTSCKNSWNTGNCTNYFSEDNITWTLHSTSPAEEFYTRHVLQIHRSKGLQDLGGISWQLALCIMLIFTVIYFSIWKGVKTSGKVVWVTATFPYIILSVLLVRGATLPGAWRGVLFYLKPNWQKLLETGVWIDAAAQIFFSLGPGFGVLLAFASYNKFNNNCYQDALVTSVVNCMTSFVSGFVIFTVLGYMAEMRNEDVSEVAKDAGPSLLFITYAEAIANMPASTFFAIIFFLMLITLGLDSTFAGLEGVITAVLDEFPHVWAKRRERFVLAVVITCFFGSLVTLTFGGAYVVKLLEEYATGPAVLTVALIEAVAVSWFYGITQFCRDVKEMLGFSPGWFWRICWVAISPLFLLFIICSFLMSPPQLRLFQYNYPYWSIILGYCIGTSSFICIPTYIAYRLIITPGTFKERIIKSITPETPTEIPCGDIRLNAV
Method: The methods for 5-HT functional reuptake using the JAR cell line were modified using a previous literature report. […] On day 2, cells were stimulated with staurosporine (40 nM) to increase the expression of the 5-HT transporter. On day 3, cells were removed from the cell incubator two hours prior to assay and maintained at room temperature to equilibrate the growth medium to ambient oxygen concentration. […] Twenty-five microliters of assay buffer (maximum 5-HT uptake) or test compound were added directly to triplicate wells containing cells in 200 μl of assay buffer. The cells were incubated with the compound for 10 minutes (37° C.). […] The cells were incubated with the reaction mixture for 5 minutes at 37° C. The 5-HT uptake reaction was terminated by decanting the assay buffer.

[5] = target: human norepinephrine transporter (hNET) (Homo sapiens, UniProt P23975); settings: read-out: hNET function uptake (EC50 in nm); MDCK-Net6 cells, [3H]NE uptake
Chain of human norepinephrine transporter (hNET) (P23975 whole entry): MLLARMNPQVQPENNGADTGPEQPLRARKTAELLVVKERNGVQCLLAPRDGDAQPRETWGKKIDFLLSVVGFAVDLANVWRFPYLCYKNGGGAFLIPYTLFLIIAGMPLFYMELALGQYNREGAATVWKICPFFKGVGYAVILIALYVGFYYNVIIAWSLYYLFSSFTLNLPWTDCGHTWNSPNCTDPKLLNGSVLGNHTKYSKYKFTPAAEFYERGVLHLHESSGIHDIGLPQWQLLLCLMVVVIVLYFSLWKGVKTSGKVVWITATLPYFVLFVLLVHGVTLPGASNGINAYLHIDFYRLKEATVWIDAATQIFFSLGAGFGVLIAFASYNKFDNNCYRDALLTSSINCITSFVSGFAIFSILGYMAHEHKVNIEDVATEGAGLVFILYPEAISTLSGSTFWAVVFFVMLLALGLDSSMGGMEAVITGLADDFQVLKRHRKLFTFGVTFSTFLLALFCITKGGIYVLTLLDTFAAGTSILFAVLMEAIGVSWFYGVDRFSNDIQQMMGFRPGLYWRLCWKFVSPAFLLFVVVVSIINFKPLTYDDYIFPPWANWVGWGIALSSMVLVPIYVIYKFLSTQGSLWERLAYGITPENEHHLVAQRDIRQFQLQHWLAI

hDAT binding (% I at 1 μM) ([3]; 1 μM) [% I] | hDAT binding (% I at 10 μM) [3] | EC50 [4] [µM] | EC50 [5] [µM] | SMILES | Reversal of tactile allodynia in the SNL neuropathic pain model [1] | Restoration of normal TST in OVX-induced thermoregulatory dysfunction telemetry model [2]
 |  |  |  | Clc1ccc(C23CNCC2C3)cc1Cl (racemic) [Racemic 1-(3,4-dichlorophenyl)-3-azabicyclo[3.1.0]hexane, 1-(3,4-dichlorophenyl)-3-azabicyclo[3.1.0]hexane] | significantly reverses tactile allodynia | 
26.5 | 45 % I and 52.1 % I |  |  | Cc1ccc(C23CNCC2C3)cc1 (racemic) [Racemic 1-(4-methylphenyl)-3-azabicyclo[3.1.0]hexane, 1-(4-methylphenyl)-3-azabicyclo[3.1.0]hexane] |  | restores normal TST
 | 51 % I | 7.35 | 0.148 | Cc1ccc(C23CNCC2C3)cc1 (single isomer, unassigned; (+)) [(+)-1-(4-methylphenyl)-3-azabicyclo[3.1.0]hexane] |  | restores normal TST
